Tests used:
Test in all cases: Proqinase Kinase profiling
Assay type in all cases: biochemical
[1] = molecular target: T1, RET_R749T (Homo sapiens, UniProt P07949, R749T); settings: read-out: % inhibition at 100nM
T1 construct: purchased DiscoverX

[2] = system: FLT3_ITD
[3] = molecular target: T2, STK24 (Homo sapiens, UniProt Q9Y6E0); settings: read-out: % inhibition at 100nM
T2 construct: purchased DiscoverX

[4] = molecular target: T3, MKNK2 (Homo sapiens, UniProt Q9HBH9); settings: read-out: % inhibition at 100nM
T3 construct: purchased DiscoverX

[5] = molecular target: T4, RPS6KA5 (Homo sapiens, UniProt O75582); settings: read-out: % inhibition at 100nM
T4 construct: purchased DiscoverX

[6] = molecular target: T5, CDK1_cyclinB (Homo sapiens, UniProt P06493); settings: read-out: % inhibition at 100nM
T5 construct: purchased DiscoverX

[7] = molecular target: T6, NEK3 (Homo sapiens, UniProt P51956); settings: read-out: % inhibition at 100nM
T6 construct: purchased DiscoverX

[8] = molecular target: T7, MET_D1228N (Homo sapiens, UniProt P08581, D1228N); settings: read-out: % inhibition at 100nM
T7 construct: purchased DiscoverX

[9] = molecular target: T8, INSRR (Homo sapiens, UniProt P14616); settings: read-out: % inhibition at 100nM
T8 construct: purchased DiscoverX

[10] = molecular target: T9, PDGFRA_T674I (Homo sapiens, UniProt P16234, T674I); settings: read-out: % inhibition at 100nM
T9 construct: purchased DiscoverX

[11] = molecular target: T10, DNAPK (Homo sapiens, UniProt P78527); settings: read-out: % inhibition at 100nM
T10 construct: purchased DiscoverX

[12] = molecular target: T11, LCK (Homo sapiens, UniProt P06239); settings: read-out: % inhibition at 100nM
T11 construct: purchased DiscoverX

[13] = molecular target: T12, CSNK1A1 (Homo sapiens, UniProt P48729); settings: read-out: % inhibition at 100nM
T12 construct: purchased DiscoverX

[14] = molecular target: T13, CHUK (Homo sapiens, UniProt O15111); settings: read-out: % inhibition at 100nM
T13 construct: purchased DiscoverX

[15] = molecular target: T14, CDK2_cyclinA2 (Homo sapiens, UniProt P24941); settings: read-out: % inhibition at 100nM
T14 construct: purchased DiscoverX

[16] = molecular target: T15, DAPK1 (Homo sapiens, UniProt P53355); settings: read-out: % inhibition at 100nM
T15 construct: purchased DiscoverX

[17] = molecular target: T16, PLK1 (Homo sapiens, UniProt P53350); settings: read-out: % inhibition at 100nM
T16 construct: purchased DiscoverX

[18] = molecular target: T17, SGK2 (Homo sapiens, UniProt Q9HBY8); settings: read-out: % inhibition at 100nM
T17 construct: purchased DiscoverX

[19] = molecular target: T18, BRAF_V600E (Homo sapiens, UniProt P15056, V600E); settings: read-out: % inhibition at 100nM
T18 construct: purchased DiscoverX

[20] = molecular target: T19, FRAP1 (Homo sapiens, UniProt P42345); settings: read-out: % inhibition at 100nM
T19 construct: purchased DiscoverX

[21] = molecular target: T20, RPS6KB1 (Homo sapiens, UniProt P23443); settings: read-out: % inhibition at 100nM
T20 construct: purchased DiscoverX

[22] = molecular target: T21, CDK9_cyclinT1 (Homo sapiens, UniProt P50750); settings: read-out: % inhibition at 100nM
T21 construct: purchased DiscoverX

[23] = molecular target: T22, CDC42BPA (Homo sapiens, UniProt Q5VT25); settings: read-out: % inhibition at 100nM
T22 construct: purchased DiscoverX

[24] = molecular target: T23, LIMK1 (Homo sapiens, UniProt P53667); settings: read-out: % inhibition at 100nM
T23 construct: purchased DiscoverX

[25] = molecular target: T24, KIT_V559D (Homo sapiens, UniProt P10721, V559D); settings: read-out: % inhibition at 100nM
T24 construct: purchased DiscoverX

[26] = molecular target: T25, EPHA2 (Homo sapiens, UniProt P29317); settings: read-out: % inhibition at 100nM
T25 construct: purchased DiscoverX

[27] = molecular target: T26, EPHB3 (Homo sapiens, UniProt P54753); settings: read-out: % inhibition at 100nM
T26 construct: purchased DiscoverX

[28] = molecular target: T27, CAMKK1 (Homo sapiens, UniProt Q8N5S9); settings: read-out: % inhibition at 100nM
T27 construct: purchased DiscoverX

[29] = molecular target: T28, LTK (Homo sapiens, UniProt P29376); settings: read-out: % inhibition at 100nM
T28 construct: purchased DiscoverX

[30] = molecular target: T29, TTK (Homo sapiens, UniProt P33981); settings: read-out: % inhibition at 100nM
T29 construct: purchased DiscoverX

[31] = molecular target: T30, EGFR_G719S (Homo sapiens, UniProt P00533, G719S); settings: read-out: % inhibition at 100nM
T30 construct: purchased DiscoverX

[32] = molecular target: T31, CAMK2D (Homo sapiens, UniProt Q13557); settings: read-out: % inhibition at 100nM
T31 construct: purchased DiscoverX

[33] = molecular target: T32, KIT_A829P (Homo sapiens, UniProt P10721, A829P); settings: read-out: % inhibition at 100nM
T32 construct: purchased DiscoverX

[34] = molecular target: T33, MKNK1 (Homo sapiens, UniProt Q9BUB5); settings: read-out: % inhibition at 100nM
T33 construct: purchased DiscoverX

[35] = molecular target: T34, PDGFRA (Homo sapiens, UniProt P16234); settings: read-out: % inhibition at 100nM
T34 construct: purchased DiscoverX

[36] = molecular target: T35, ABL1_T351I (Homo sapiens, UniProt P00519, T315I); settings: read-out: % inhibition at 100nM
T35 construct: purchased DiscoverX

[37] = molecular target: T36, TEK_R849W (Homo sapiens, UniProt Q02763, R849W); settings: read-out: % inhibition at 100nM
T36 construct: purchased DiscoverX

[38] = molecular target: T37, ALK_F1174S (Homo sapiens, UniProt Q9UM73, F1174S); settings: read-out: % inhibition at 100nM
T37 construct: purchased DiscoverX

[39] = molecular target: T38, YES1 (Homo sapiens, UniProt P07947); settings: read-out: % inhibition at 100nM
T38 construct: purchased DiscoverX

[40] = molecular target: T39, EPHB4 (Homo sapiens, UniProt P54760); settings: read-out: % inhibition at 100nM
T39 construct: purchased DiscoverX

[41] = molecular target: T40, MAPKAPK3 (Homo sapiens, UniProt Q16644); settings: read-out: % inhibition at 100nM
T40 construct: purchased DiscoverX

[42] = molecular target: T41, EGFR_G719C (Homo sapiens, UniProt P00533, G719C); settings: read-out: % inhibition at 100nM
T41 construct: purchased DiscoverX

[43] = molecular target: T42, TEK_Y897S (Homo sapiens, UniProt Q02763, Y897S); settings: read-out: % inhibition at 100nM
T42 construct: purchased DiscoverX

T12 sequence (P48729 whole entry): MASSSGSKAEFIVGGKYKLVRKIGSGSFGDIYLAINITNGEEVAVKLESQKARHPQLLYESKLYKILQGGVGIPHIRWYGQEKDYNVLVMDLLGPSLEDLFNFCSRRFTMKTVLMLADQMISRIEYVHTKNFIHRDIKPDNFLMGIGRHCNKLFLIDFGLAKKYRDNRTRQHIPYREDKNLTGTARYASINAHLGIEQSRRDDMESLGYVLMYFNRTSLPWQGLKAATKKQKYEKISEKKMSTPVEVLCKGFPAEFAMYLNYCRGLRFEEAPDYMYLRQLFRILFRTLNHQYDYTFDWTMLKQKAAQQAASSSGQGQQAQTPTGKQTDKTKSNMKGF
T3 sequence (Q9HBH9 whole entry): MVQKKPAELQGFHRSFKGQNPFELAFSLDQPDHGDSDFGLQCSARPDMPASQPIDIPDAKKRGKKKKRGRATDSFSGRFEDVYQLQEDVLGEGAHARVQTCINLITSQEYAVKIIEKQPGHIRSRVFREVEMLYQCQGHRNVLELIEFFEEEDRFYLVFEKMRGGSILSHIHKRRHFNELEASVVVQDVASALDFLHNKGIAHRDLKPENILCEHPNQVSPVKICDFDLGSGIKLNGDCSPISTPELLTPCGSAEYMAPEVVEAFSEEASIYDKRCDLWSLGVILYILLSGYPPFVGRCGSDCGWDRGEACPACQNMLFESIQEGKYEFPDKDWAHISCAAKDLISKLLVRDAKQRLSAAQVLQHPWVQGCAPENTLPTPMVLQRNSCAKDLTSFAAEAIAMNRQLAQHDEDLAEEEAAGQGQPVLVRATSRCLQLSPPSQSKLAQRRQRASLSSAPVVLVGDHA
T2 sequence (Q9Y6E0 whole entry): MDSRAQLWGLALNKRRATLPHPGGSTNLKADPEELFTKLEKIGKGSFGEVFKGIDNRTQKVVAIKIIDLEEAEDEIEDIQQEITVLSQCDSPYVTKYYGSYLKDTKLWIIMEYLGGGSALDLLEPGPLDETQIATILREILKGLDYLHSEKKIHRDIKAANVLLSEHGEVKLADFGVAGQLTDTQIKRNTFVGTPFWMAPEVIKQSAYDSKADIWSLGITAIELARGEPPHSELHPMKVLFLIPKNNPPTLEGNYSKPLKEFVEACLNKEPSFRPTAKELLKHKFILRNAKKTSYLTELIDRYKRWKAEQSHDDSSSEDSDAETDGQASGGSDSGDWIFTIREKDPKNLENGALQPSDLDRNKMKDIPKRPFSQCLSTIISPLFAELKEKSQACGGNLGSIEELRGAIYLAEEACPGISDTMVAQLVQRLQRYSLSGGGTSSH
T38 sequence (P07947 whole entry): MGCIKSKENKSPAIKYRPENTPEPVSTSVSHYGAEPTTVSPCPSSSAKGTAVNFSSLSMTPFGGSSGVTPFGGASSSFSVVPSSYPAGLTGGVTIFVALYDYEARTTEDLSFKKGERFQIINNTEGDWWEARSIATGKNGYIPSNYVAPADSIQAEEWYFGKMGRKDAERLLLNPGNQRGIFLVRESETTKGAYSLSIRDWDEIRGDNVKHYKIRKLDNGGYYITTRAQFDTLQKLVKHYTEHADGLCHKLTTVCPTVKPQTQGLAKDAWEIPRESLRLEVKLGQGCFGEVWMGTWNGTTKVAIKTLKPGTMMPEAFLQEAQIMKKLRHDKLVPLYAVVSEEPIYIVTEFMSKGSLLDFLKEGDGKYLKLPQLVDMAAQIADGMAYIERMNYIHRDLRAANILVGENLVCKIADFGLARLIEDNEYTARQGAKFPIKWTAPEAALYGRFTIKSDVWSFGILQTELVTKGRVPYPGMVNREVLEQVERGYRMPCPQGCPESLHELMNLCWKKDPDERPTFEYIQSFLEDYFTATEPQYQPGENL
T29 sequence (P33981 whole entry): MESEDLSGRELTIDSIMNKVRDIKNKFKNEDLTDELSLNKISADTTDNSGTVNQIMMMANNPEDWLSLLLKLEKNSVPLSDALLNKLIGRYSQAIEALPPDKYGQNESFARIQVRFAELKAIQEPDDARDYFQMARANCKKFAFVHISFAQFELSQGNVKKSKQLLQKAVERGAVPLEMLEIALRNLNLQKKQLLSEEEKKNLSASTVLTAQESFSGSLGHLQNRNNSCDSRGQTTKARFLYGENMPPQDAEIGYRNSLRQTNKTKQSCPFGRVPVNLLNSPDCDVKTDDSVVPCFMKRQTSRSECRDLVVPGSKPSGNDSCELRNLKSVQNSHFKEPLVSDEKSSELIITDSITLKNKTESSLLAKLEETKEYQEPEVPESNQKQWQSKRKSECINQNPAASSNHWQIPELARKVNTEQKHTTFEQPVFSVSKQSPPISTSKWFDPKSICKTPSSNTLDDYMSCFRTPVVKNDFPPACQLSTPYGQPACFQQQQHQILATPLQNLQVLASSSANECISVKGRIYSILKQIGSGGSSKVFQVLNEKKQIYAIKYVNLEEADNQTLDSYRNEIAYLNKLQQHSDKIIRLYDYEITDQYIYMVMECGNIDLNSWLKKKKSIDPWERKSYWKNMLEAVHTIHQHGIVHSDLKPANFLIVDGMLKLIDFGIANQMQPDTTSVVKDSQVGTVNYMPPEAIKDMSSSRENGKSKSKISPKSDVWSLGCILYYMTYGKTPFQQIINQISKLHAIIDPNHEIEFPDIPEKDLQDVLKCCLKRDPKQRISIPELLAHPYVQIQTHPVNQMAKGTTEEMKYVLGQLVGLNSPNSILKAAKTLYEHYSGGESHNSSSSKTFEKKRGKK
T4 sequence (O75582 whole entry): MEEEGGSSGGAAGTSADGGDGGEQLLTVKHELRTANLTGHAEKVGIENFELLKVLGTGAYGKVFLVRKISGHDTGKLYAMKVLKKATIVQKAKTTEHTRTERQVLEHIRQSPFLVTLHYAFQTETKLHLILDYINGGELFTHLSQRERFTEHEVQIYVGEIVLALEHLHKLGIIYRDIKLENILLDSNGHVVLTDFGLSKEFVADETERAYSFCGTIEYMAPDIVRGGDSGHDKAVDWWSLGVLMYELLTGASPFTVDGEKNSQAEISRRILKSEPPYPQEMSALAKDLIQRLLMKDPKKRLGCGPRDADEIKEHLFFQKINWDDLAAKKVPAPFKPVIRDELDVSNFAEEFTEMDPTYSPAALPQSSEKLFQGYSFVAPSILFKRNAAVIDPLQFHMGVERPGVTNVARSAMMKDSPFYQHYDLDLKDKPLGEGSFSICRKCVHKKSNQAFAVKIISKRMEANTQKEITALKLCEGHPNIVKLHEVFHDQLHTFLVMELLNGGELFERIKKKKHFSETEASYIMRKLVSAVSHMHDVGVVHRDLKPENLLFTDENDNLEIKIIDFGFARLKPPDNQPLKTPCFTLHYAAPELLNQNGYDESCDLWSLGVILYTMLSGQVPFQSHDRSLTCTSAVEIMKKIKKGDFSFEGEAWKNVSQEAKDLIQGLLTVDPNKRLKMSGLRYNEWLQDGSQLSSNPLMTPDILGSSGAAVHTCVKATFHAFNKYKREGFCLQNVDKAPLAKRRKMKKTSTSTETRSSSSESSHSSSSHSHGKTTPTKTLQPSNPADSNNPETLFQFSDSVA
T41 sequence (P00533 25-1210 G719C): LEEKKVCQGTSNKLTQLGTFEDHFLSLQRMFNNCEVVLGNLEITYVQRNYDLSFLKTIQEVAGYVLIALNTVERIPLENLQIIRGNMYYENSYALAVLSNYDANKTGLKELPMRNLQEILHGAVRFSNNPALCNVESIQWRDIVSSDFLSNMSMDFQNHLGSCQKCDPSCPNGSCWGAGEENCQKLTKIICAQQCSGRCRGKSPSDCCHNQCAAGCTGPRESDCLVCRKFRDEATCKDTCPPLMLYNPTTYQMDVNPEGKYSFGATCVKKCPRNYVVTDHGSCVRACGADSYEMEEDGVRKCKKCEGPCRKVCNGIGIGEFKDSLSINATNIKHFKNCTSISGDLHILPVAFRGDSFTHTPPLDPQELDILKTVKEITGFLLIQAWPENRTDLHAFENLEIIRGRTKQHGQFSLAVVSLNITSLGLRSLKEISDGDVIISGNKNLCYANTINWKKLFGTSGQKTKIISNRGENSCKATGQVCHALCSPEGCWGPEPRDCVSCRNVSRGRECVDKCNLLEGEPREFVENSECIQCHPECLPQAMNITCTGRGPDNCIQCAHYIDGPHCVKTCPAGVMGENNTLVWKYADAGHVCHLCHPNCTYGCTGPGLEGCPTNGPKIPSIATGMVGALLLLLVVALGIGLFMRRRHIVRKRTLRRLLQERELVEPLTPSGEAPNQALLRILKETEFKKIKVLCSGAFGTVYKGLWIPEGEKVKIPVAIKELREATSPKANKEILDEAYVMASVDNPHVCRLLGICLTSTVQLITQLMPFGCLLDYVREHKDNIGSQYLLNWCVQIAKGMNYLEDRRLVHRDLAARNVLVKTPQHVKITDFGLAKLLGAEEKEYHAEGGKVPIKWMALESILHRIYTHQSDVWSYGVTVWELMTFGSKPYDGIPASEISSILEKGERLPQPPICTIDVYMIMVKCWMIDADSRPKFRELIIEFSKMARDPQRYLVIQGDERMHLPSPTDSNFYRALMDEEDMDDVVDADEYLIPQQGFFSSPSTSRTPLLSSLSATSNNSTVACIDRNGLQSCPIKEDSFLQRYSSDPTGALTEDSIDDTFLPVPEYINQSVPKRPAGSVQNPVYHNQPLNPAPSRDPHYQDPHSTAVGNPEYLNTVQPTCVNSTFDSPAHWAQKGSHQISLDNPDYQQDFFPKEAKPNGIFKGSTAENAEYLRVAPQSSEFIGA
T40 sequence (Q16644 whole entry): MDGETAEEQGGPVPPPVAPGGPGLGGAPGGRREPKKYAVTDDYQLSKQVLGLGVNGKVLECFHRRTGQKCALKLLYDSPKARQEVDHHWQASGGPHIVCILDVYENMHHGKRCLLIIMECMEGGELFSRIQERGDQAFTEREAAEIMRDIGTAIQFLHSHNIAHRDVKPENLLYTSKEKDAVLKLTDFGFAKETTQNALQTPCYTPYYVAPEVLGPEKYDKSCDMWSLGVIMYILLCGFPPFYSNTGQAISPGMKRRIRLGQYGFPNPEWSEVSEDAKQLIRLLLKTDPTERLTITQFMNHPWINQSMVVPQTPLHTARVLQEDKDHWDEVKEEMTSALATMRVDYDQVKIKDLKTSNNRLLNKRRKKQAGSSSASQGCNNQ

## Clc1cc2cc(c1)-c1cnn3ccc(nc13)NCCOCCO2 [OD36]
[1]
  inhibition at 0.1 µM: 30%
[2]
  % inhibition at 100nM: 36%
[3]
  inhibition at 0.1 µM: 8%
[4]
  inhibition at 0.1 µM: 28%
[5]
  inhibition at 0.1 µM: -3%
[6]
  inhibition at 0.1 µM: 9%
[7]
  inhibition at 0.1 µM: 22%
[8]
  inhibition at 0.1 µM: 4%
[9]
  inhibition at 0.1 µM: 0%
[10]
  inhibition at 0.1 µM: -22%
[11]
  inhibition at 0.1 µM: 13%
[12]
  inhibition at 0.1 µM: 48%
[13]
  inhibition at 0.1 µM: -6%
[14]
  inhibition at 0.1 µM: 20%
[15]
  inhibition at 0.1 µM: 4%
[16]
  inhibition at 0.1 µM: 12%
[17]
  inhibition at 0.1 µM: 7%
[18]
  inhibition at 0.1 µM: 6%
[19]
  inhibition at 0.1 µM: 10%
[20]
  inhibition at 0.1 µM: 14%
[21]
  inhibition at 0.1 µM: -9%
[22]
  inhibition at 0.1 µM: 17%
[23]
  inhibition at 0.1 µM: 15%
[24]
  inhibition at 0.1 µM: 16%
[25]
  inhibition at 0.1 µM: 15%
[26]
  inhibition at 0.1 µM: 7%
[27]
  inhibition at 0.1 µM: 1%
[28]
  inhibition at 0.1 µM: 20%
[29]
  inhibition at 0.1 µM: 6%
[30]
  inhibition at 0.1 µM: 10%
[31]
  inhibition at 0.1 µM: 10%
[32]
  inhibition at 0.1 µM: 6%
[33]
  inhibition at 0.1 µM: 17%
[34]
  inhibition at 0.1 µM: 23%
[35]
  inhibition at 0.1 µM: 29%
[36]
  inhibition at 0.1 µM: 9%
[37]
  inhibition at 0.1 µM: 8%
[38]
  inhibition at 0.1 µM: 13%
[39]
  inhibition at 0.1 µM: 28%
[40]
  inhibition at 0.1 µM: 6%
[41]
  inhibition at 0.1 µM: -1%
[42]
  inhibition at 0.1 µM: 19%
[43]
  inhibition at 0.1 µM: 12%

## Cc1cc2cc(c1)-c1cnn3ccc(nc13)NCCNC(=O)CCN(C)C2 [OD52]
[1]
  inhibition at 0.1 µM: 36%
[2]
  % inhibition at 100nM: 19%
[3]
  inhibition at 0.1 µM: 12%
[4]
  inhibition at 0.1 µM: 9%
[5]
  inhibition at 0.1 µM: 7%
[6]
  inhibition at 0.1 µM: 6%
[7]
  inhibition at 0.1 µM: 6%
[8]
  inhibition at 0.1 µM: 6%
[9]
  inhibition at 0.1 µM: 6%
[10]
  inhibition at 0.1 µM: 4%
[11]
  inhibition at 0.1 µM: 4%
[12]
  inhibition at 0.1 µM: 4%
[13]
  inhibition at 0.1 µM: 1%
[14]
  inhibition at 0.1 µM: 0%
[15]
  inhibition at 0.1 µM: 0%
[16]
  inhibition at 0.1 µM: 0%
[17]
  inhibition at 0.1 µM: -1%
[18]
  inhibition at 0.1 µM: -1%
[19]
  inhibition at 0.1 µM: -1%
[20]
  inhibition at 0.1 µM: -1%
[21]
  inhibition at 0.1 µM: -2%
[22]
  inhibition at 0.1 µM: -3%
[23]
  inhibition at 0.1 µM: -4%
[24]
  inhibition at 0.1 µM: -5%
[25]
  inhibition at 0.1 µM: -6%
[26]
  inhibition at 0.1 µM: -6%
[27]
  inhibition at 0.1 µM: -8%
[28]
  inhibition at 0.1 µM: -8%
[29]
  inhibition at 0.1 µM: -8%
[30]
  inhibition at 0.1 µM: -9%
[31]
  inhibition at 0.1 µM: -9%
[32]
  inhibition at 0.1 µM: -9%
[33]
  inhibition at 0.1 µM: -10%
[34]
  inhibition at 0.1 µM: -11%
[35]
  inhibition at 0.1 µM: -12%
[36]
  inhibition at 0.1 µM: -15%
[37]
  inhibition at 0.1 µM: -16%
[38]
  inhibition at 0.1 µM: -18%
[39]
  inhibition at 0.1 µM: -22%
[40]
  inhibition at 0.1 µM: -25%
[41]
  inhibition at 0.1 µM: -25%
[42]
  inhibition at 0.1 µM: -31%
[43]
  inhibition at 0.1 µM: -31%
